In patent US9440977B2, “Compositions, uses and methods for their preparation” (priority 2013, dated 2016):

Assays:
Experiment in all cases: JAK activity, Invitrogen SelectScreen Biochemical Kinase Profiling, Z'-LYTE
Settings in all cases: ATP concentration at Km
JAK2 = JAK2 (Homo sapiens, UniProt O60674)
Method: (§1) JAK activity was determined using Invitrogen's SelectScreen® Biochemical Kinase Profiling Service using the Z'-LYTE Screening Protocol and Assay Conditions (ATP concentration at Km).

JAK3 = molecular target: T1, JAK3 (Homo sapiens, UniProt P52333)
T1 sequence (P52333 1-1124): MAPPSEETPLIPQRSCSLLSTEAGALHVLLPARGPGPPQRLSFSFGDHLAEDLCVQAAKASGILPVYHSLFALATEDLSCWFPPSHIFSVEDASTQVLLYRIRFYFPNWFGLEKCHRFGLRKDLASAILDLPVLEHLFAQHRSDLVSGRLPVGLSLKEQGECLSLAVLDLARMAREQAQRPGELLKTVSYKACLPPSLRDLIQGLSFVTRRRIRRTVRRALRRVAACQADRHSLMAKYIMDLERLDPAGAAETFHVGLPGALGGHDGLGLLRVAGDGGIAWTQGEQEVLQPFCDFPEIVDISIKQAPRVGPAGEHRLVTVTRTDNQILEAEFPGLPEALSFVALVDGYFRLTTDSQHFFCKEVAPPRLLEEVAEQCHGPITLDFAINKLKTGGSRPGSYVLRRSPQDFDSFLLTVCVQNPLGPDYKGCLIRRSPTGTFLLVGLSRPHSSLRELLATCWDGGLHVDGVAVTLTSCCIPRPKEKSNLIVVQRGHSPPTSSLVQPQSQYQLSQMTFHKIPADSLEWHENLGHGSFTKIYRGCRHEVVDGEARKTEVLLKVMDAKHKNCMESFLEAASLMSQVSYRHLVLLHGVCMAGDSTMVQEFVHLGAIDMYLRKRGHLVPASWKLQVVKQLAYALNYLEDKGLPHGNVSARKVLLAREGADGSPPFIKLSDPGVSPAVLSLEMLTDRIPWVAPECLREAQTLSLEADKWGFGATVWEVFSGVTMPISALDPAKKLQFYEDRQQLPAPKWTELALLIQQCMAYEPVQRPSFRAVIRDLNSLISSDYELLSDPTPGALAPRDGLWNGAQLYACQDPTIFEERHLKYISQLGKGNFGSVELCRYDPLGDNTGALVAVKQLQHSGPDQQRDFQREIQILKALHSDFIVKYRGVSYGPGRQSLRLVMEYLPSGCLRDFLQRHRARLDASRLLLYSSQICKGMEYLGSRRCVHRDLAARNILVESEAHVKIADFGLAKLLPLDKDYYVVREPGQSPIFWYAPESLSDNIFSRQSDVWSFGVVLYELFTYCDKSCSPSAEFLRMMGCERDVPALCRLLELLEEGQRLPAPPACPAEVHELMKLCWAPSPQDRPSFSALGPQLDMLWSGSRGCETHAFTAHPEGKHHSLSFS
Method: as §1

JAK1 = JAK1 (Homo sapiens, UniProt P23458)
Chain of JAK1 (P23458 whole entry): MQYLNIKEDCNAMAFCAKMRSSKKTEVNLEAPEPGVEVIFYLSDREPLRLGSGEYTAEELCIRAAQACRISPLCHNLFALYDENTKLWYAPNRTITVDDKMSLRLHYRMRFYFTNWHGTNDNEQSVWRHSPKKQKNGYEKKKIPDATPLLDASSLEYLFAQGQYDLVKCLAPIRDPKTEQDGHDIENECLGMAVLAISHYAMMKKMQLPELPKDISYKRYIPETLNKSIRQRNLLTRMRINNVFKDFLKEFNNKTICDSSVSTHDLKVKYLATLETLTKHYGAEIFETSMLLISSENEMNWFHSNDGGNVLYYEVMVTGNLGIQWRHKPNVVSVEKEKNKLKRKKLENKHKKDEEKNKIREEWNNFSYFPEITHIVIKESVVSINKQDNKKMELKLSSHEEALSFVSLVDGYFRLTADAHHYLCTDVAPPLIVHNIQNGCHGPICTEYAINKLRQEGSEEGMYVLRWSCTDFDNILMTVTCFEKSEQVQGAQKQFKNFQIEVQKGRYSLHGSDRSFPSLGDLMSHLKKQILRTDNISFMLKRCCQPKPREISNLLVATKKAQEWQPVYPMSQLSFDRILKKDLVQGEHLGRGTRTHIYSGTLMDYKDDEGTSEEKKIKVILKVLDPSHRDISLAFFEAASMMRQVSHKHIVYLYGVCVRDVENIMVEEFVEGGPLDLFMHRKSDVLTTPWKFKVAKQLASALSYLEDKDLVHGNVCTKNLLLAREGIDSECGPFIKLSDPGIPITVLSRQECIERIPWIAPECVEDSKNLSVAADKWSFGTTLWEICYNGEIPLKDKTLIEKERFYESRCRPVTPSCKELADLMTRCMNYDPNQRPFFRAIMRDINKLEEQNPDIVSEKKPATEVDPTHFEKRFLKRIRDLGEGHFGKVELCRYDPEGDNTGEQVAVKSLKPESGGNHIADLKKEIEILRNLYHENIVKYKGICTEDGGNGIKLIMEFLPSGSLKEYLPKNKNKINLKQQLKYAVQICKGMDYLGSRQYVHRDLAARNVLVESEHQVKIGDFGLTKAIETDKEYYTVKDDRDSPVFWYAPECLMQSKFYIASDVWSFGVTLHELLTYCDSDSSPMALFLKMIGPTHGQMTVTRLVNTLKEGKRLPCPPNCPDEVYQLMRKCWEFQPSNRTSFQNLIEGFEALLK
Method: as §1

Chain of JAK2 (O60674 whole entry): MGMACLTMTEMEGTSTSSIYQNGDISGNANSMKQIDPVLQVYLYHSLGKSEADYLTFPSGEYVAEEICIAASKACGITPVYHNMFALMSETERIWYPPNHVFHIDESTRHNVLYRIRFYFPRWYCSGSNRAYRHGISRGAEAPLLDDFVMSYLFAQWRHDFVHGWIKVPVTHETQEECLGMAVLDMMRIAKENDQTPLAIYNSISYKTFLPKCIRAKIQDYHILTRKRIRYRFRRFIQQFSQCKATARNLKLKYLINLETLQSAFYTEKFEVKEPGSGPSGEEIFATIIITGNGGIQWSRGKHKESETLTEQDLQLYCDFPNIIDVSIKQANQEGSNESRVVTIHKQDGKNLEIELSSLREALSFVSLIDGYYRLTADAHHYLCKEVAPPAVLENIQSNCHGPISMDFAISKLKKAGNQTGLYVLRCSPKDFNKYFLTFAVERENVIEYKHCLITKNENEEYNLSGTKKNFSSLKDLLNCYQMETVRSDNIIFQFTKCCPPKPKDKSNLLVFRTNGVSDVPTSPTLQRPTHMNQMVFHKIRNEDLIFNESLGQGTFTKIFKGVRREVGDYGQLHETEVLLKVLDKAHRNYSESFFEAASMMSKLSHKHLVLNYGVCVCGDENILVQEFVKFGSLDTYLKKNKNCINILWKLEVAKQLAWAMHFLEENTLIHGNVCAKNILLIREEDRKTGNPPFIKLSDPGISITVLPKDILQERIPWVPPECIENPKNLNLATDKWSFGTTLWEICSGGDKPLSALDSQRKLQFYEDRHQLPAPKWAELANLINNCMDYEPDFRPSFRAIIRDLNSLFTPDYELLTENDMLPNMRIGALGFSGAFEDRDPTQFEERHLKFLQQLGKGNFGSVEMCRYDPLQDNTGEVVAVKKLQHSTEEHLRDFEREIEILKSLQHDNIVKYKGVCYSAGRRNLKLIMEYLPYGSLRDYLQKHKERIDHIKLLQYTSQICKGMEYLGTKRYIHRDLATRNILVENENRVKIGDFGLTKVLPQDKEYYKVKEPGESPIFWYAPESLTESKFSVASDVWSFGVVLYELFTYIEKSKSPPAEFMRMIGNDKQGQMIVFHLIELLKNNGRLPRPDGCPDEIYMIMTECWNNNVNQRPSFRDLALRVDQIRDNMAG

| IC50 (JAK2) | IC50 (JAK3) | IC50 (JAK1) | Structure (SMILES) |
| --- | --- | --- | --- |
| < 10 nM | > 100 nM | 10 to 100 nM | N#CCC(C1CCCC1)n1cc2c(n1)C(=O)c1c[nH]c3nccc-2c13 (stereo not drawn) [Example 1, 3-cyclopentyl-3-{7-oxo-4,5,10,12-tetraazatetracyclo[6.6.1.0^2,6.0^11,15]pentadeca-1(15),2,5,8,11,13-hexaen-4-yl}propanenitrile] |
| 10 to 100 nM | > 100 nM | > 100 nM | N#CCC(C1CCCC1)n1ncc2c1C(=O)c1c[nH]c3nccc-2c13 (stereo not drawn) [Example 2, 3-cyclopentyl-3-{7-oxo-4,5,10,12-tetraazatetracyclo[6.6.1.0^2,6.0^11,15]pentadeca-1(15),2(6),3,8,11,13-hexaen-5-yl}propanenitrile] |
| < 10 nM | > 100 nM | 10 to 100 nM | N#CC[C@H](C1CCCC1)n1cc2c(n1)C(=O)c1c[nH]c3nccc-2c13 [Example 4, (3R)-3-cyclopentyl-3-{7-oxo-4,5,10,12-tetraazatetracyclo[6.6.1.0^2,6.0^11,15]pentadeca-1(15),2,5,8,11,13-hexaen-4-yl}propanenitrile] |
